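Results reflect a 48-hour exposure of cells in 96-well plates to compound at five concentrations. Abbreviation: GI50, concentration required for 50% inhibition of growth. At the TGI there is no net growth.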
Legend:
Test in all cases: DTP human tumour cell line panel, 48 h
[1] = tested on: A549 NSCLC
[2] = tested on: BT-549 breast
[3] = tested on: HOP-92 NSCLC
[4] = tested on: HS 578T breast
[5] = tested on: K-562 leukemia
[6] = tested on: MDA-MB-435
[7] = tested on: OVCAR-8 ovarian
[8] = tested on: SK-MEL-2 melanoma
[9] = tested on: SW-620 colon
[10] = tested on: UACC-257 melanoma

Cc1nc(-c2ccc([N+](=O)[O-])cc2)cn2c1nc1ccccc12
TGI [1]: > 100 µM | TGI [2]: > 100 µM | TGI [3]: > 100 µM | TGI [4]: > 100 µM | TGI [5]: > 100 µM | TGI [6]: > 100 µM | TGI [7]: > 100 µM | TGI [8]: 69.2 µM | TGI [9]: > 100 µM | TGI [10]: > 100 µM

COCOC1/C=C/CCCCC2=C(C)C=C(C1)O2 (stereo not drawn)
TGI [1]: > 100 µM | TGI [2]: > 100 µM | TGI [3]: > 100 µM | TGI [4]: > 100 µM | TGI [5]: > 100 µM | TGI [6]: > 100 µM | TGI [7]: > 100 µM | TGI [8]: > 100 µM | TGI [9]: > 100 µM | TGI [10]: > 100 µM

Cc1c(F)c(N)c2c(=O)cc(-c3ccc(NC(=O)CN(C)C)c(F)c3)oc2c1F
TGI [1]: > 100 µM | TGI [2]: > 100 µM | GI50 [3]: > 36.4 µM | TGI [3]: 99.4 µM | TGI [4]: > 100 µM | TGI [5]: 98.9 µM | TGI [6]: > 100 µM | TGI [7]: > 100 µM | TGI [8]: > 100 µM | TGI [9]: > 74.6 µM | TGI [10]: > 100 µM

COc1cc(/C=C2/C(=O)N(C(=O)c3ccccc3O)N=C2C)cc(OC)c1OC
TGI [1]: > 100 µM | TGI [2]: > 100 µM | TGI [3]: > 83.9 µM | TGI [4]: > 100 µM | TGI [5]: > 100 µM | TGI [6]: > 100 µM | TGI [7]: > 100 µM | TGI [8]: > 29.4 µM | TGI [9]: > 100 µM | TGI [10]: > 100 µM

Cc1c(-c2nc3ccccc3[nH]2)c(=O)n(-c2ccccc2)n1C
TGI [1]: > 100 µM | TGI [2]: > 100 µM | TGI [3]: > 100 µM | TGI [4]: > 100 µM | TGI [5]: > 100 µM | TGI [6]: > 100 µM | TGI [7]: > 100 µM | TGI [8]: > 100 µM | TGI [9]: > 100 µM | TGI [10]: > 100 µM

O=C(O)c1c2c(cc3c1CC1(Cc4ccccc4C1)C3)CCC2
TGI [1]: > 100 µM | TGI [2]: > 100 µM | TGI [3]: 52.5 µM | TGI [4]: > 100 µM | TGI [5]: > 100 µM | TGI [6]: > 100 µM | TGI [7]: > 100 µM | TGI [9]: > 100 µM | TGI [10]: > 100 µM

NCC1CCN(c2nc3ccccc3c3c2CCCC3)CC1
TGI [1]: 24.9 µM | TGI [2]: 28 µM | TGI [3]: 24.1 µM | TGI [4]: > 100 µM | TGI [5]: 8.07 µM | TGI [6]: 7.13 µM | TGI [7]: 42.9 µM | TGI [8]: 11.3 µM | TGI [9]: 9.34 µM | TGI [10]: 6.84 µM

COc1cccc(-c2cc(=O)c3ccccc3o2)c1N
TGI [1]: > 100 µM | TGI [2]: > 100 µM | TGI [3]: > 100 µM | TGI [4]: > 100 µM | TGI [5]: > 100 µM | TGI [6]: > 100 µM | TGI [7]: > 100 µM | TGI [8]: > 100 µM | TGI [9]: > 100 µM | TGI [10]: > 100 µM

Cc1nc2c(sc(=S)n2-c2ccccc2)c2nc3ncccc3n12
TGI [1]: > 100 µM | TGI [2]: > 100 µM | TGI [3]: > 100 µM | TGI [4]: > 100 µM | TGI [5]: > 100 µM | TGI [6]: > 100 µM | TGI [7]: > 100 µM | TGI [8]: > 100 µM | TGI [9]: > 100 µM | TGI [10]: > 100 µM

COc1ccc(C2CC(c3c(O)ccc4ccccc34)=NN2c2ccc([N+](=O)[O-])cc2[N+](=O)[O-])cc1OC (stereo not drawn)
TGI [1]: 98.3 µM | TGI [2]: > 100 µM | TGI [3]: 58.7 µM | TGI [4]: > 89.7 µM | TGI [5]: 20.2 µM | TGI [6]: > 100 µM | TGI [7]: 27.3 µM | TGI [8]: > 65.1 µM | TGI [9]: > 100 µM | TGI [10]: > 93.9 µM

COc1ccc2[nH]c(O)c(/C=c3/cc4c(c(-c5cc(OC)c(OC)c(OC)c5)n3)=Nc3ccccc3-4)c2c1
GI50 [1]: 8.66 µM | TGI [1]: > 100 µM | GI50 [2]: 5.13 µM | TGI [2]: 83.5 µM | GI50 [3]: 3.43 µM | TGI [3]: 99.2 µM | GI50 [4]: 9.81 µM | TGI [4]: > 100 µM | GI50 [5]: 4.14 µM | TGI [5]: > 100 µM | GI50 [6]: 3.48 µM | TGI [6]: > 100 µM | GI50 [7]: 3.77 µM | TGI [7]: > 100 µM | GI50 [8]: 15.9 µM | TGI [8]: > 100 µM | GI50 [9]: 4.96 µM | TGI [9]: > 100 µM | GI50 [10]: 29.7 µM | TGI [10]: > 100 µM

CCOP(=O)(OCC)/C(C#N)=C/c1cnc(-c2ccccc2)[nH]1
TGI [1]: > 100 µM | TGI [2]: > 100 µM | TGI [3]: > 100 µM | TGI [4]: > 100 µM | TGI [5]: > 100 µM | TGI [6]: 80.9 µM | TGI [7]: > 100 µM | TGI [8]: > 100 µM | TGI [9]: > 100 µM | TGI [10]: > 100 µM

C=C(C)C12CC(COC(=O)c3ccccc3)C34OC5(OC1C3C1OC1(CO)C(O)C1(O)C(OC(=O)c3ccccc3)C(C)C(C(C)CCCCCCC5O)C14)O2 (stereo not drawn)
TGI [2]: > 100 µM | TGI [3]: > 100 µM | TGI [4]: > 100 µM | TGI [5]: > 100 µM | TGI [6]: > 79.3 µM | TGI [7]: > 100 µM | TGI [8]: > 100 µM | TGI [10]: > 100 µM

COc1ccc(-c2cc(-c3ccco3)c(C#N)c(=S)n2C2OC(COC(C)=O)C(OC(C)=O)C(OC(C)=O)C2OC(C)=O)cc1 (stereo not drawn)
TGI [1]: 24.5 µM | TGI [2]: 8.23 µM | TGI [3]: 13 µM | TGI [4]: 21.1 µM | TGI [5]: > 100 µM | TGI [6]: 28.2 µM | TGI [7]: 13 µM | TGI [9]: 93.2 µM

Cc1ccc([C@@H]2[C@@H](C(=O)c3ccccn3)[C@H](c3ccc(C)cc3)C[C@](O)(c3ccccn3)[C@H]2C(=O)c2ccccn2)cc1
TGI [1]: > 44.7 µM | TGI [2]: > 100 µM | TGI [3]: > 100 µM | TGI [4]: > 100 µM | TGI [5]: > 100 µM | TGI [6]: > 100 µM | TGI [7]: > 100 µM | TGI [8]: > 100 µM | TGI [9]: > 100 µM | TGI [10]: > 100 µM

O=C(NNC(=S)Nc1ccc(Cl)cc1)c1cc(-c2ccccc2)nc2ccccc12
TGI [1]: 21.3 µM | TGI [2]: 19.2 µM | TGI [3]: 13.6 µM | TGI [4]: 32.4 µM | TGI [5]: 93.1 µM | TGI [6]: 11.4 µM | TGI [7]: 29.1 µM | TGI [8]: 9.89 µM | TGI [9]: 18.4 µM | TGI [10]: 19.5 µM

COc1cc(O)c(/C=N/N=C(\N)NO)c(OC)c1
TGI [1]: > 10 µM | TGI [2]: > 10 µM | TGI [3]: > 10 µM | TGI [4]: > 10 µM | TGI [5]: > 10 µM | TGI [6]: > 10 µM | TGI [7]: > 10 µM | TGI [8]: > 10 µM | TGI [9]: > 10 µM | TGI [10]: > 10 µM

S=C(N/N=C\C=N/NC(=S)N1CCCCC1)N1CCCCC1
TGI [1]: > 100 µM | TGI [2]: > 100 µM | TGI [3]: 45.8 µM | TGI [4]: > 51.9 µM | TGI [5]: > 100 µM | TGI [6]: > 100 µM | TGI [7]: > 100 µM | TGI [9]: > 100 µM | TGI [10]: > 100 µM

COC(=O)C(/C(=N/NC(N)=O)C(=O)Nc1ccc(C)cc1)c1nc2ccc([N+](=O)[O-])cc2[nH]c1=O (stereo not drawn)
TGI [1]: > 100 µM | TGI [2]: > 100 µM | TGI [3]: > 100 µM | TGI [4]: > 100 µM | TGI [5]: > 100 µM | TGI [6]: > 100 µM | TGI [7]: > 100 µM | TGI [8]: > 100 µM | TGI [9]: > 100 µM

CN1C(=O)C2C(=O)N(Cc3ccccc3)CC(=O)N2c2cccnc21 (stereo not drawn)
TGI [1]: > 100 µM | TGI [2]: > 100 µM | TGI [3]: > 100 µM | TGI [4]: > 100 µM | TGI [5]: > 100 µM | TGI [6]: > 100 µM | TGI [7]: > 100 µM | TGI [8]: > 100 µM | TGI [10]: > 100 µM
